Data as given in patent US20030162777A1, “Novel N-acylated heterocycles” (Recordati S.A., priority 2001, published 2003).

How the values were obtained:
conscious rats = experiment: Effect on cystometric parameters in conscious rats after oral administration; type: in vivo, rat; conditions: 3 mg/kg p.o., 1-5 h after treatment, versus vehicle
Procedure: Male Sprague-Dawley rats [Crl: CD° (SD) BR] of 300-400 g supplied by Charles River Italia were used. The animals were housed with free access to food and water and maintained on a forced 12-hour-light/12-hour-dark cycle at 22-24° C. of temperature, except during the experiment. To quantify urodynamic parameters in conscious rats, cystometrographic studies were performed according to the procedure previously reported (Guarneri et al., Pharmacol. Res. 24: 175, 1991).
Briefly, the rats were anaesthetised by intraperitoneal administration of 3 ml/kg of Equithensin solution (pentobarbital 30 mg/kg and chloral hydrate 125 mg/kg) and placed in a supine position. An approximately-10-mm-long midline incision was made in the shaved and cleaned abdominal wall. The urinary bladder was gently freed from adhering tissues, emptied and then cannulated via an incision in the bladder body, using a polyethylene cannula (0.58-mm internal diameter, 0.96-mm external diameter) which was permanently sutured with silk thread. The cannula was exteriorised through a subcutaneous tunnel in the retroscapular area, where it was connected to a plastic adapter in order to avoid the risk of removal by the animal. For drug testing, the rats were utilised one day after implantation.
On the day of the experiment, the rats were placed in modified Bollman cages, i.e. restraining cages that were large enough to permit the rats to adopt a normal crouched posture, but narrow enough to prevent turning around. […] The intraluminal-pressure signal during infusion of saline into the bladder was continuously recorded on a polygraph (Rectigraph-8K San-ei with BM614/2 amplifier from Biomedica Mangoni) and, from the cystometrogram, two urodynamic parameters were evaluated: bladder volume capacity (BVC) and micturition pressure (MP). […] Basal BVC and MP values were evaluated as mean of the values observed in the cystometrograms recorded in an initial period of 30-60 minutes. […] The bladder infusion restarted and changes in BVC and MP were evaluated from the mean values obtained in the cystometrograms observed during 1, 2, 3, 4 and 5 hours after treatment. […]
All data were expressed as mean±standard error. Time-course data were analysed by S.A.S./STAT software, version 6.12. The difference between vehicle and active-treatment effect was evaluated by: General Linear Model Procedure—Repeated Measures Analysis of Variance: Univariate test of Hypotheses for within Subject Effects—Analysis of Variance of Contrast Variables. […]

5-HT1A receptors = biological target: T1, 5-HT1A receptors (Rattus norvegicus, UniProt P19327); experiment: Inhibition of stereotypy (rhythmic forepaw treading) induced by 8-OH-DPAT in rats (post-synaptic antagonism); type: in vivo; conditions: 1 mg/kg p.o.; for inhibition at 1 mg/kg: rat
T1 construct: from tissue; host or cells: whole animal: male Sprague-Dawley rats (post-synaptic 5-HT1A receptors)
T1 sequence (P19327 1-422): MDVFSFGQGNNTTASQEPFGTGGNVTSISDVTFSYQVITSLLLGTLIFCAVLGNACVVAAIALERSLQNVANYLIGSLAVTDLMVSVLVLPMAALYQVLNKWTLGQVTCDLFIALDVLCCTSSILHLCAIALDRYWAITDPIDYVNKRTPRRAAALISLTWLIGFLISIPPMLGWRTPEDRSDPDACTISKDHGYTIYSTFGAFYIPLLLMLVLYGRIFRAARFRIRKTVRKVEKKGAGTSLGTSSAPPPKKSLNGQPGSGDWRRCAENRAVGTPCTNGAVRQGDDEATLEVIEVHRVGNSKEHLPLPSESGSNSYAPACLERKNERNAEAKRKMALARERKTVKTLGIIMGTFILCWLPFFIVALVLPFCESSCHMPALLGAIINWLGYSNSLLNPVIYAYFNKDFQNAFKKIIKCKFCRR
Procedure: The inhibitory effect of 5-HT1A-receptor antagonists on stereotyped forepaw treading induced in rats by subcutaneous injection of 8-OH-DPAT was evaluated by the method of Tricklebank (Tricklebanket al., Eur. J. Pharmacol., 117: 15, 1985) with minor modifications as described below.
Male Sprague-Dawley rats [Crl: CD° (SD) BR] weighing 150-175 g from Charles River Italia were used. The animals were housed with free access to food and water and maintained on a forced 12-hour-light/12-hour-dark cycle at 22-24° C. of temperature. On the day of the experiment, the rats were placed singly in clear plastic containers, 10-15 minutes before administration of the vehicle or compounds to be tested. For evaluation of antagonistic activity after oral administration, the compounds were administered 0.5, 1 and 4 hours before induction of stereotypy by 8-OH-DPAT (1 mg/kg subcutaneously). Observation sessions lasted 30 seconds and began 3 minutes after 8-OH-DPAT treatment and were repeated every 3 minutes over a period of 15 minutes.
The appearance of the symptom induced by postsynaptic stimulation of 5-HT1A receptors was noted, and the intensity was scored using an intensity scale in which: 0=absent, 1=equivocal, 2=present and 3=intense. Behavioural scores for treated rats were accumulated throughout the observation time (5 observation periods) and expressed as mean values of 4 rats/dose. Change in mean values of treated animals in comparison with control (vehicle) group, expressed as per-cent inhibition, was used in order to quantify the antagonistic activity.

inhibition at 1 mg/kg (5-HT1A receptors; 0.5 h before 8-OH-DPAT (1 mg/kg s.c.)): 91%
inhibition at 1 mg/kg (5-HT1A receptors; 1 h before 8-OH-DPAT (1 mg/kg s.c.)): 91%
inhibition at 1 mg/kg (5-HT1A receptors; 4 h before 8-OH-DPAT (1 mg/kg s.c.)): 96%
SMILES: O=C(C1CCCCC1)N1c2ccccc2CCC1CN1CCN(c2cccc3[nH]ccc23)CC1 (racemic) [Example 1, (±)1-(1-cyclohexanecarbonyl-1,2,3,4-tetrahydroquinoline-2-ylmethyl)-4-(4-indolyl)piperazine]
effect on bladder volume capacity (BVC) (conscious rats): effective in increasing the bladder volume capacity
effect on micturition pressure (MP) (conscious rats): without significant effects
post-synaptic 5-HT1A-receptor antagonist activity (in words) (5-HT1A receptors; rats): significant and long-lasting post-synaptic 5-HT1A-receptor antagonist activity
